Experimental data from ChEMBL document CHEMBL3045573, “Design, synthesis, and quantitative structure-activity relationship study of herbicidal analogues of pyrazolo[5,1-d][1,2,3,5]tetrazin-4(3H)ones” (2007).

How the values were obtained:
Format in all cases: functional
Settings in all cases: read-out: GI
[1] = test system: Brassica rapa subsp. oleifera; assay: Herbicidal activity against Brassica rapa subsp. oleifera assessed as inhibition of root growth of rape seed at 10 ug/mL for 65 hr at 28 +/- 1 degC by root test
Echinochloa crus-galli [2] = assay: Herbicidal activity against Echinochloa crus-galli (barnyard grass) assessed as inhibition of seedling growth at 100 ug/mL for 65 hr at 28 +/- 1 degC by cup test
[3] = test system: Brassica rapa subsp. oleifera; assay: Herbicidal activity against Brassica rapa subsp. oleifera assessed as inhibition of root growth of rape seed at 100 ug/mL for 65 hr at 28 +/- 1 degC by root test
Echinochloa crus-galli [4] = assay: Herbicidal activity against Echinochloa crus-galli (barnyard grass) assessed as inhibition of seedling growth at 10 ug/mL for 65 hr at 28 +/- 1 degC by cup test

SMILES | inhibition of growth at 10 µg/mL [1] [%] | inhibition of growth at 100 µg/mL (Echinochloa crus-galli [2]) [%] | inhibition of growth at 100 µg/mL [3] [%] | inhibition of growth at 10 µg/mL (Echinochloa crus-galli [4]) [%]
CCOC(=O)c1c(C(F)(F)F)nn2c(=O)n(-c3ccc(Cl)c(C(F)(F)F)c3)nnc12 | 13 | 0 | 14 | 0
CCOC(=O)c1c(C)nn2c(=O)n(-c3ccc(C(F)(F)F)cc3)nnc12 | 82 | 10 | 90 | 0
CCOC(=O)c1c(C)nn2c(=O)n(-c3c(Cl)cc(C(F)(F)F)cc3Cl)nnc12 | 4 | 22 | 25 | 0
CC#COc1cc(-n2nnc3c(C(=O)OCC)c(SC)nn3c2=O)c(F)cc1Cl | 0 | 32 | 0 | 0
CCOC(=O)c1c(SC)nn2c(=O)n(-c3ccccc3C(F)(F)F)nnc12 | 0 | 0 | 23 | 0
CCOC(=O)c1c(C(F)(F)F)nn2c(=O)n(-c3cccc(C(F)(F)F)c3)nnc12 | 0 | 1 | 14 | 0
CCOC(=O)c1c(SC)nn2c(=O)n(-c3cc(C(F)(F)F)ccc3Cl)nnc12 | 0 | 11 | 13 | 2
C=CCOc1cc(-n2nnc3c(C(=O)OCC)c(SC)nn3c2=O)c(F)cc1Cl | 0 | 22 | 25 | 0
CC#COc1cc(-n2nnc3c(C(=O)OCC)c(C(F)(F)F)nn3c2=O)c(F)cc1Cl | 0 | 28 | 0 | 0
CCCOc1cc(-n2nnc3c(C(=O)OCC)c(C)nn3c2=O)c(F)cc1Cl | 0 | 18 | 0 | 0
CCOC(=O)c1c(C(F)(F)F)nn2c(=O)n(-c3ccccc3C(F)(F)F)nnc12 | 7 | 9 | 9 | 0
CCOC(=O)c1c(SC)nn2c(=O)n(-c3ccc(C(F)(F)F)cc3)nnc12 | 4 | 22 | 18 | 2
CCOC(=O)c1c(C)nn2c(=O)n(-c3cc(C(F)(F)F)ccc3Cl)nnc12 | 61 | 0 | 65 | 0
CCOC(=O)c1c(SC)nn2c(=O)n(-c3c(Cl)cc(C(F)(F)F)cc3Cl)nnc12 | 3 | 28 | 9 | 3
CCOC(=O)c1c(C(F)(F)F)nn2c(=O)n(-c3ccc(C(F)(F)F)cc3)nnc12 | 0 | 18 | 2 | 9
CCOC(=O)c1c(C)nn2c(=O)n(-c3ccc(Cl)c(C(F)(F)F)c3)nnc12 | 89 | 4 | 89 | 0
CCCOc1cc(-n2nnc3c(C(=O)OCC)c(SC)nn3c2=O)c(F)cc1Cl | 0 | 12 | 2 | 0
CCOC(=O)c1c(C(F)(F)F)nn2c(=O)n(-c3cc(C(F)(F)F)ccc3Cl)nnc12 | 0 | 2 | 10 | 0
CCOC(=O)c1c(C)nn2c(=O)n(-c3ccccc3C(F)(F)F)nnc12 | 5 | 6 | 86 | 0
CCOC(=O)c1c(SC)nn2c(=O)n(-c3cc(OC(C)C)c(Cl)cc3F)nnc12 | 0 | 20 | 13 | 0
CCOC(=O)c1c(SC)nn2c(=O)n(-c3ccc(Cl)c(C(F)(F)F)c3)nnc12 | 22 | 26 | 24 | 0
CCOC(=O)c1c(C)nn2c(=O)n(-c3ccc(Cl)cc3C(F)(F)F)nnc12 | 0 | 14 | 63 | 6
CCCOc1cc(-n2nnc3c(C(=O)OCC)c(C(F)(F)F)nn3c2=O)c(F)cc1Cl | 0 | 20 | 5 | 0
CCOC(=O)c1c(SC)nn2c(=O)n(-c3cccc(C(F)(F)F)c3)nnc12 | 34 | 0 | 37 | 0
C=CCOc1cc(-n2nnc3c(C(=O)OCC)c(C)nn3c2=O)c(F)cc1Cl | 0 | 24 | 0 | 0
CCOC(=O)c1c(C(F)(F)F)nn2c(=O)n(-c3c(Cl)cc(C(F)(F)F)cc3Cl)nnc12 | 2 | 15 | 22 | 0
CCOC(=O)c1c(C(F)(F)F)nn2c(=O)n(-c3ccc(Cl)cc3C(F)(F)F)nnc12 | 0 | 21 | 0 | 0
C=CCOc1cc(-n2nnc3c(C(=O)OCC)c(C(F)(F)F)nn3c2=O)c(F)cc1Cl | 0 | 16 | 2 | 0
